Source: patent US11702404B2, “GLP-1R modulating compounds” (priority 2019, dated 2023)
Read-outs that look alike come from different tables or passages of the source.

What was measured:
GLP-1R = GLP-1R (Homo sapiens, UniProt P43220); assay: GLP-1R activation: cAMP increase in CHO cells stably expressing GLP-1R; assay type: cell-based; conditions: read-out: EC50
[1] = Microsomal stability, human liver microsomes (predicted hepatic clearance); conditions: predicted from in vitro microsomal stability data
[2] = cAMP increase, CHO cells stably expressing GLP-1R, 10 point dose response, 30 minutes incubation

Chain of GLP-1R (P43220 24-463): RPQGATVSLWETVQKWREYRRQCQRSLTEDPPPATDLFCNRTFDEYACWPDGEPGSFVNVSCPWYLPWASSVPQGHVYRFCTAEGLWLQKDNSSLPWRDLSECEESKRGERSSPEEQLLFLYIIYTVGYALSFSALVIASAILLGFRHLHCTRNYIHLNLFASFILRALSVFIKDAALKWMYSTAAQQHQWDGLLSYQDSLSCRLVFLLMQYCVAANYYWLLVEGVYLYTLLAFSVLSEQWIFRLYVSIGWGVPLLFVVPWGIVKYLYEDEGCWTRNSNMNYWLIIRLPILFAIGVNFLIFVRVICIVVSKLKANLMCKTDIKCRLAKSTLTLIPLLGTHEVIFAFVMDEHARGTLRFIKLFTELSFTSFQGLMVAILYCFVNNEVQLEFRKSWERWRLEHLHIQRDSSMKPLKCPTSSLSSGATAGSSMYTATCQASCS

Compound | EC50 (GLP-1R; [2]) [nM] | Predicted Hepatic Clearance (Pred. Cl.) [1] [L/h/kg] | EC50 (GLP-1R) [nM]
N#Cc1cc(F)c(COc2cccc(-c3ccc(Cc4nc5ccc(C(=O)O)cc5n4C[C@@H]4CCO4)c(F)c3)n2)cc1F [Example 668] | 0.56 | 0.22 | –
O=C(O)c1cc(F)c2nc(Cc3cc(F)c(-c4cccc(OCc5ccc(C(F)F)cc5F)n4)cc3F)n(CC34CC(CO3)C4)c2c1 [Example 669] | 0.28 | 0.11 | –
O=C(O)c1ccc2nc(Cc3cc(F)c(-c4cccc(OCc5ccc(C(F)F)cc5F)n4)cc3F)n(CC34CC(CO3)C4)c2c1 [Example 670] | 0.51 | 0.19 | –
O=C(O)c1ccc2nc(Cc3cc(F)c(-c4ccnc(OCc5ccc(C(F)F)cc5F)n4)cc3F)n(CC34CC(CO3)C4)c2c1 [Example 671] | 1.76 | 0.11 | –
COCCn1c(Cc2cc(F)c(-c3ccnc(OCc4ccc(C(F)F)cc4F)n3)cc2F)nc2c(F)cc(C(=O)O)cc21 [Example 672] | 0.58 | 0.11 | –
COCCn1c(Cc2cc(F)c(-c3ccc(F)c(OCc4ccc(C#N)cc4F)n3)cc2C)nc2ccc(C(=O)O)cc21 [Example 673] | 3.54 | 0.27 | –
COCCn1c(Cc2cc(F)c(-c3cccc(OCc4ccc(C#N)cc4F)n3)cc2C)nc2ccc(C(=O)O)cc21 [Example 674] | 2.73 | 0.36 | –
N#Cc1ccc(COc2nc(-c3ccc(Cc4nc5c(F)cc(C(=O)O)cc5n4C[C@@H]4CCO4)cc3)ccc2F)c(F)c1 [Example 675] | 0.16 | 0.17 | –
N#Cc1cc(F)c(COc2nc(-c3ccc(Cc4nc5ccc(C(=O)O)cc5n4C[C@@H]4CCO4)cc3F)ccc2F)cc1F [Example 676] | 0.52 | 0.14 | –
N#Cc1cc(F)c(COc2nccc(-c3cc(F)c(Cc4nc5c(F)cc(C(=O)O)cc5n4C[C@@H]4CCO4)cc3F)n2)cc1F [Example 677] | 0.06 | 0.11 | –
CCn1cnnc1Cn1c(Cc2cc(F)c(-c3cccc(OCc4ccc(C(F)F)cc4F)n3)cc2F)nc2ccc(C(=O)O)cc21 [Example 678] | 0.88 | 0.25 | –
O=C(O)c1ccc2nc(Cc3c(F)cc(-c4cccc(OCc5ccc(C(F)F)cc5F)n4)cc3F)n(C[C@@H]3CCO3)c2c1 [Example 679] | 0.06 | 0.30 | –
N#Cc1cc(F)c(COc2cccc(-c3cc(F)c(Cc4nc5ccc(C(=O)O)cc5n4C[C@@H]4CCO4)c(F)c3)n2)cc1F [Example 680] | 0.11 | 0.33 | –
COCCn1c(Cc2ccc(-c3cccc(OCc4ccc(C#N)cc4F)n3)c(F)c2)nc2c(F)cc(C(=O)O)cc21 [Example 681] | 5.64 | 0.20 | –
N#Cc1ccc(COc2cccc(-c3cnc(Cc4nc5ccc(C(=O)O)cc5n4C[C@@H]4CCO4)c(F)c3)n2)c(F)c1 [Example 682] | 0.59 | 0.15 | –
N#Cc1ccc(COc2cccc(-c3cc(=O)n(Cc4nc5ccc(C(=O)O)cc5n4CC45CC(CO4)C5)cc3F)n2)c(F)c1 [Example 683] | 2.41 | 0.39 | –
COCCn1c(Cn2cc(F)c(-c3cccc(OCc4ccc(C#N)cc4F)n3)cc2=O)nc2c(F)cc(C(=O)O)cc21 [Example 684] | 0.29 | 0.18 | –
N#Cc1ccc(COc2nccc(-c3cc(F)c(Cc4nc5ccc(C(=O)NS(=O)(=O)C6CC6)cc5n4C[C@@H]4CCO4)cc3F)n2)c(F)c1 [Example 685] | 1.05 | 0.14 | –
Cc1cc(-c2ccc(F)c(OCc3ccc(C#N)cc3F)n2)ccc1Cc1nc2ccc(C(=O)O)cc2n1C[C@@H]1CCO1 [Example 686] | 0.55 | 0.24 | –
COC1(Cn2c(Cc3cc(F)c(-c4cccc(OCc5ccc(C#N)cc5F)n4)cc3F)nc3ccc(C(=O)O)cc32)CN(C(C)=O)C1 [Example 687] | 181 | 0.52 | –
COC1(Cn2c(Cc3cc(F)c(-c4cccc(OCc5ccc(C#N)cc5F)n4)cc3F)nc3ccc(C(=O)O)cc32)CN(S(C)(=O)=O)C1 [Example 688] | 1220 | 0.62 | –
CC(=O)N1C[C@@H](F)C[C@@H]1Cn1c(Cc2cc(F)c(-c3cccc(OCc4ccc(C#N)cc4F)n3)cc2F)nc2ccc(C(=O)O)cc21 [Example 690] | – | 0.36 | 3.98
CC(=O)N1C[C@H](F)C[C@@H]1Cn1c(Cc2cc(F)c(-c3cccc(OCc4ccc(C#N)cc4F)n3)cc2F)nc2ccc(C(=O)O)cc21 [Example 691] | – | 0.25 | 0.06
COCCn1c(Cc2cc(F)c(-c3cccc(OCc4csc(Cl)c4)n3)cc2F)nc2ccc(C(=O)O)cc21 [Example 692] | 12.3 | 0.11 | –

Compound | EC50 (GLP-1R; [2]) [nM] | Predicted Hepatic Clearance (Pred. Cl.) [1] [L/h/kg] | EC50 (GLP-1R) [nM]
COCCn1c(Cc2ccc(-c3cccc(OCc4ccc(Cl)cn4)n3)cc2F)nc2ccc(C(=O)O)cc21 [Example 693] | 15.9 | 0.58 | –
COCCn1c(Cc2cc(F)c(-c3cccc(OCc4ccn(-c5ccccc5)n4)n3)cc2F)nc2ccc(C(=O)O)cc21 [Example 694] | 41.7 | 0.11 | –
COC1(Cn2c(Cc3cc(F)c(-c4cccc(OCc5ccc(C#N)cc5F)n4)cc3F)nc3ccc(C(=O)O)cc32)CN(C2COC2)C1 [Example 696] | 592 | 0.65 | –
CN1CC2CC1(Cn1c(Cc3cc(F)c(-c4cccc(OCc5ccc(C#N)cc5F)n4)cc3F)nc3ccc(C(=O)O)cc31)C2 [Example 697] | – | 0.11 | 25.6
N#Cc1ccc(COc2cccc(-c3cc(F)c(Cc4nc5ccc(C(=O)O)cc5n4[C@H]4CCC(F)(F)C4)cc3F)n2)c(F)c1 [Example 698] | 63.2 | 0.38 | –
N#Cc1ccc(COc2cccc(-c3cc(F)c(Cc4nc5ccc(C(=O)O)cc5n4[C@@H]4CCC(F)(F)C4)cc3F)n2)c(F)c1 [Example 699] | 83.9 | 0.28 | –
N#Cc1ccc(COc2cccc(-c3cc(F)c(Cc4nc5ccc(C(=O)O)cc5n4C4CCCC4(F)F)cc3F)n2)c(F)c1 (stereo not shown) [Example 700] | 3.48 | 0.31 | –
CO[C@H]1CC[C@@H]1n1c(Cc2cc(F)c(-c3cccc(OCc4ccc(C#N)cc4F)n3)cc2F)nc2ccc(C(=O)O)cc21 [Example 701] | 145 | 0.23 | –
N#Cc1ccc(COc2cccc(-c3cc(F)c(Cc4nc5ccc(C(=O)O)cc5n4C4COCCOC4)cc3F)n2)c(F)c1 [Example 702] | 8.14 | 0.16 | –
N#Cc1ccc(COc2cccc(-c3cc(F)c(Cc4nc5ccc(C(=O)O)cc5n4CC45COCC4C5(F)F)cc3F)n2)c(F)c1 (stereo not shown) [Example 703] | 1.01 | 0.34 | –
N#Cc1ccc(COc2cccc(-c3cc(F)c(Cc4nc5ccc(C(=O)O)cc5n4CC45COCC4C5)cc3F)n2)c(F)c1 (stereo not shown) [Example 704] | 0.98 | 0.11 | –
N#Cc1ccc(COc2cccc(-c3cc(F)c(Cc4nc5ccc(C(=O)O)cc5n4[C@H]4CC[C@@H]4O)cc3F)n2)c(F)c1 [Example 705] | 73.2 | 0.80 | –
N#Cc1ccc(COc2cccc(-c3cc(F)c(Cc4nc5ccc(C(=O)O)cc5n4Cc4cncs4)cc3F)n2)c(F)c1 [Example 706] | 1.31 | 0.73 | –
N#Cc1ccc(COc2cccc(-c3cc(F)c(Cc4nc5ccc(C(=O)O)cc5n4Cc4nccs4)cc3F)n2)c(F)c1 [Example 707] | 4.81 | 0.24 | –
CO[C@@H]1CCC[C@@H]1n1c(Cc2cc(F)c(-c3cccc(OCc4ccc(C#N)cc4F)n3)cc2F)nc2ccc(C(=O)O)cc21 [Example 708] | 0.64 | 0.45 | –
CO[C@H]1CCC[C@@H]1n1c(Cc2cc(F)c(-c3cccc(OCc4ccc(C#N)cc4F)n3)cc2F)nc2ccc(C(=O)O)cc21 [Example 709] | 4.77 | 0.53 | –
N#Cc1ccc(COc2cccc(-c3cc(F)c(Cc4nc5ccc(C(=O)O)cc5n4[C@H]4CCC[C@@]45CCCO5)cc3F)n2)c(F)c1 [Example 710] | 1.45 | 0.66 | –
CO[C@@H]1COC[C@@H]1n1c(Cc2cc(F)c(-c3cccc(OCc4ccc(C#N)cc4F)n3)cc2F)nc2ccc(C(=O)O)cc21 [Example 711] | 0.08 | 0.38 | –
CO[C@H]1COC[C@@H]1n1c(Cc2cc(F)c(-c3cccc(OCc4ccc(C#N)cc4F)n3)cc2F)nc2ccc(C(=O)O)cc21 [Example 712] | 2.55 | 0.41 | –
N#Cc1ccc(COc2cccc(-c3cc(F)c(Cc4nc5ccc(C(=O)O)cc5n4CC4(F)CCOCC4)cc3F)n2)c(F)c1 [Example 713] | 5.76 | 0.15 | –
CC12CCC(Cn3c(Cc4cc(F)c(-c5cccc(OCc6ccc(C#N)cc6F)n5)cc4F)nc4ccc(C(=O)O)cc43)(C1)OC2 (stereo not shown) [Example 714] | 24.9 | 0.11 | –
COC(Cn1c(Cc2cc(F)c(-c3cccc(OCc4ccc(C#N)cc4F)n3)cc2F)nc2ccc(C(=O)O)cc21)C(F)(F)F (stereo not shown) [Example 715] | 4.01 | 0.12 | –
COC[C@@H](c1ccccc1)n1c(Cc2cc(F)c(-c3cccc(OCc4ccc(C#N)cc4F)n3)cc2F)nc2ccc(C(=O)O)cc21 [Example 716] | 2740 | 0.13 | –
